# Calls of active or inactive are those of the source. The rule behind the calls is not given here.
# Legend:
# K562 = assay: Growth inhibition of human K562 cells after 48 hrs by sulforhodamine B assay; assay type: functional; conditions: K562, 48 h
# MCF7 = assay: Growth inhibition of human MCF7 cells after 48 hrs by sulforhodamine B assay; assay type: functional; conditions: MCF7, 48 h
# SF-295 = assay: Growth inhibition of human SF295 cells after 48 hrs by sulforhodamine B assay; assay type: functional; conditions: SF-295, 48 h
# SK-MEL-5 [1] = assay: Growth inhibition of human SK-MEL-5 cells at 10 uM after 48 hrs by sulforhodamine B assay; assay type: functional, cell-based
# OVCAR-3 = assay: Growth inhibition of human OVCAR3 cells after 48 hrs by sulforhodamine B assay; assay type: functional; conditions: OVCAR-3, 48 h
# MDA-MB-468 = assay: Growth inhibition of human MDA-MB-468 cells after 48 hrs by sulforhodamine B assay; assay type: functional; conditions: MDA-MB-468, 48 h
# SF-268 = assay: Growth inhibition of human SF268 cells at 10 uM after 48 hrs by sulforhodamine B assay; assay type: functional, cell-based
# HOP-92 = assay: Growth inhibition of human HOP92 cells after 48 hrs by sulforhodamine B assay; assay type: functional; conditions: HOP-92, 48 h
# A549 = assay: Growth inhibition of human A549/ATCC cells after 48 hrs by sulforhodamine B assay; assay type: functional; conditions: A549, 48 h
# 786-0 = assay: Growth inhibition of human 786-0 cells at 10 uM after 48 hrs by sulforhodamine B assay; assay type: functional, cell-based
# DU-145 = assay: Growth inhibition of human DU145 cells at 10 uM after 48 hrs by sulforhodamine B assay; assay type: functional, cell-based
# HCC 2998 [2] = assay: Growth inhibition of human HCC2998 cells after 48 hrs by sulforhodamine B assay; assay type: functional; conditions: HCC 2998, 48 h
# SF-539 = assay: Growth inhibition of human SF539 cells after 48 hrs by sulforhodamine B assay; assay type: functional; conditions: SF-539, 48 h
# NCI/ADR-RES = assay: Growth inhibition of human NCI-ADR-RES cells after 48 hrs by sulforhodamine B assay; assay type: functional
# SNB-75 = assay: Growth inhibition of human SNB75 cells at 10 uM after 48 hrs by sulforhodamine B assay; assay type: functional, cell-based
# SR = assay: Growth inhibition of human SR cells at 10 uM after 48 hrs by sulforhodamine B assay; assay type: functional, cell-based
# HCT-15 [3] = assay: Growth inhibition of human HCT15 cells at 10 uM after 48 hrs by sulforhodamine B assay; assay type: functional, cell-based
# SK-OV-3 = assay: Growth inhibition of human SKOV3 cells at 10 uM after 48 hrs by sulforhodamine B assay; assay type: functional, cell-based
# NCI-H460 = assay: Growth inhibition of human NCI-H460 cells at 10 uM after 48 hrs by sulforhodamine B assay; assay type: functional, cell-based
# T47D = assay: Growth inhibition of human T47D cells at 10 uM after 48 hrs by sulforhodamine B assay; assay type: functional, cell-based
# EKVX = assay: Growth inhibition of human EKVX cells at 10 uM after 48 hrs by sulforhodamine B assay; assay type: functional, cell-based
# NCI-H522 [4] = assay: Growth inhibition of human NCI-H522 cells after 48 hrs by sulforhodamine B assay; assay type: functional; conditions: NCI-H522, 48 h
# KM12 [5] = assay: Growth inhibition of human KM12 cells at 10 uM after 48 hrs by sulforhodamine B assay; assay type: functional, cell-based
# RXF 393 = assay: Growth inhibition of human RXF393 cells after 48 hrs by sulforhodamine B assay; assay type: functional; conditions: RXF 393, 48 h
# LOX IMVI = assay: Growth inhibition of human LOXIMVI cells at 10 uM after 48 hrs by sulforhodamine B assay; assay type: functional, cell-based
# SK-MEL-5 [6] = assay: Growth inhibition of human SK-MEL-5 cells after 48 hrs by sulforhodamine B assay; assay type: functional; conditions: SK-MEL-5, 48 h
# COLO 205 = assay: Growth inhibition of human COLO205 cells after 48 hrs by sulforhodamine B assay; assay type: functional; conditions: COLO 205, 48 h
# KM12 [7] = assay: Growth inhibition of human KM12 cells after 48 hrs by sulforhodamine B assay; assay type: functional; conditions: KM12, 48 h
# TK-10 = assay: Growth inhibition of human TK10 cells after 48 hrs by sulforhodamine B assay; assay type: functional; conditions: TK-10, 48 h
# CCRF-CEM = assay: Growth inhibition of human CCRF-CEM cells after 48 hrs by sulforhodamine B assay; assay type: functional
# M14 = assay: Growth inhibition of human M14 cells at 10 uM after 48 hrs by sulforhodamine B assay; assay type: functional, cell-based
# HL-60(TB) = assay: Growth inhibition of human HL-60(TB) cells after 48 hrs by sulforhodamine B assay; assay type: functional; conditions: HL-60, 48 h
# NCI-H522 [8] = assay: Growth inhibition of human NCI-H522 cells at 10 uM after 48 hrs by sulforhodamine B assay; assay type: functional, cell-based
# UACC-62 = assay: Growth inhibition of human UACC62 cells at 10 uM after 48 hrs by sulforhodamine B assay; assay type: functional, cell-based
# HCC 2998 [9] = assay: Growth inhibition of human HCC2998 cells at 10 uM after 48 hrs by sulforhodamine B assay; assay type: functional, cell-based
# HCT-15 [10] = assay: Growth inhibition of human HCT15 cells after 48 hrs by sulforhodamine B assay; assay type: functional; conditions: HCT-15, 48 h
# NCI-H23 = assay: Growth inhibition of human NCI-H23 cells at 10 uM after 48 hrs by sulforhodamine B assay; assay type: functional, cell-based
# MOLT-4 = assay: Growth inhibition of human MOLT4 cells at 10 uM after 48 hrs by sulforhodamine B assay; assay type: functional, cell-based
# OVCAR-8 = assay: Growth inhibition of human OVCAR8 cells after 48 hrs by sulforhodamine B assay; assay type: functional; conditions: OVCAR-8, 48 h
# [11] = read-out: LC50 (the source's name)
smiles,measurement,setting,value
O=C1/C(=C\c2cccn2Cc2ccccc2)c2ccccc2N1c1c(Cl)cccc1Cl,GI50,K562,> 100 µM
same,TGI,K562,> 100 µM
same,CC50,K562; [11],> 100 µM
same,GI50,MCF7,0.035 µM
same,TGI,MCF7,> 100 µM
same,CC50,MCF7; [11],> 100 µM
same,GI50,SF-295,> 100 µM
same,TGI,SF-295,> 100 µM
same,CC50,SF-295; [11],> 100 µM
same,growth inhibition (GI),SK-MEL-5 [1],Active
same,GI50,OVCAR-3,0.74 µM
same,TGI,OVCAR-3,> 100 µM
same,CC50,OVCAR-3; [11],> 100 µM
same,GI50,MDA-MB-468,0.063 µM
same,TGI,MDA-MB-468,0.28 µM
same,CC50,MDA-MB-468; [11],1.38 µM
same,growth inhibition (GI),SF-268,Active
same,GI50,HOP-92,0.97 µM
same,TGI,HOP-92,17.8 µM
same,CC50,HOP-92; [11],> 100 µM
same,GI50,A549,8.31 µM
same,TGI,A549,> 100 µM
same,CC50,A549; [11],> 100 µM
same,growth inhibition (GI),786-0,Active
same,growth inhibition (GI),DU-145,Active
same,GI50,HCC 2998 [2],0.87 µM
same,TGI,HCC 2998 [2],> 100 µM
same,CC50,HCC 2998 [2]; [11],> 100 µM
same,GI50,SF-539,> 100 µM
same,TGI,SF-539,> 100 µM
same,CC50,SF-539; [11],> 100 µM
same,GI50,NCI/ADR-RES,> 100 µM
same,TGI,NCI/ADR-RES,> 100 µM
same,CC50,NCI/ADR-RES; [11],> 100 µM
same,growth inhibition (GI),SNB-75,Active
same,growth inhibition (GI),SR,Active
same,growth inhibition (GI),HCT-15 [3],Active
same,growth inhibition (GI),SK-OV-3,Active
same,growth inhibition (GI),NCI-H460,Active
same,growth inhibition (GI),T47D,Active
same,growth inhibition (GI),EKVX,Active
same,GI50,NCI-H522 [4],> 100 µM
same,TGI,NCI-H522 [4],> 100 µM
same,CC50,NCI-H522 [4]; [11],> 100 µM
same,growth inhibition (GI),KM12 [5],Active
same,GI50,RXF 393,> 100 µM
same,TGI,RXF 393,> 100 µM
same,CC50,RXF 393; [11],> 100 µM
same,growth inhibition (GI),LOX IMVI,Active
same,GI50,SK-MEL-5 [6],2.13 µM
same,TGI,SK-MEL-5 [6],> 100 µM
same,CC50,SK-MEL-5 [6]; [11],> 100 µM
same,GI50,COLO 205,1.04 µM
same,TGI,COLO 205,9.33 µM
same,CC50,COLO 205; [11],> 100 µM
same,GI50,KM12 [7],0.38 µM
same,TGI,KM12 [7],> 100 µM
same,CC50,KM12 [7]; [11],> 100 µM
same,GI50,TK-10,0.64 µM
same,TGI,TK-10,> 100 µM
same,CC50,TK-10; [11],> 100 µM
same,GI50,CCRF-CEM,> 100 µM
same,TGI,CCRF-CEM,> 100 µM
same,CC50,CCRF-CEM; [11],> 100 µM
same,growth inhibition (GI),M14,Active
same,GI50,HL-60(TB),> 100 µM
same,TGI,HL-60(TB),> 100 µM
same,CC50,HL-60(TB); [11],> 100 µM
same,growth inhibition (GI),NCI-H522 [8],Active
same,growth inhibition (GI),UACC-62,Active
same,growth inhibition (GI),HCC 2998 [9],Active
same,GI50,HCT-15 [10],0.37 µM
same,TGI,HCT-15 [10],> 100 µM
same,CC50,HCT-15 [10]; [11],> 100 µM
same,growth inhibition (GI),NCI-H23,Active
same,growth inhibition (GI),MOLT-4,Active
same,GI50,OVCAR-8,> 100 µM
same,TGI,OVCAR-8,> 100 µM
same,CC50,OVCAR-8; [11],> 100 µM

# — ChEMBL document CHEMBL4177730, “Rational modification of semaxanib and sunitinib for developing a tumor growth inhibitor targeting ATP binding site of tyrosine kinase” (2018)
